The experiment has as its target T1, PE-labeled human PD-L1-Ig binding to Jurkat cell line over-expressing human PD-1 (Jurkat-PD-1) (Homo sapiens, UniProt Q15116).
T1 construct: expressed in transfected cells; host or cells: Jurkat
Briefly: Jurkat-PD-1 Cell Binding High-Content Screening Assay (CBA): Method 1. The note with it: Jurkat-hPD-1 cells, PE-labeled PD-L1-Ig 20 nM final; read-out: Jurkat HPDL1 PD1 IC50 (uM) (Method 1).

Numbered stars: 1 amine (or outer) side, 2 acyl side, 3 side chain; on linkers, the order of the positions; unused ones are H or OH. Bridge positions count the residues as written; N and C are the ends. Square brackets hold non-standard residues; d marks the D form. Peptide text beside a SMILES is read from it. * marks the point of attachment. ξ: configuration not given here. Phe(4-COOH) = N[C@@H](Cc1ccc(C(=O)O)cc1)C(=O)O; X23 = O=C([C@H](Cc1cc2ccccc2cn1)N[*:1])[*:2]; Bip = N[C@@H](Cc1ccc(-c2ccccc2)cc1)C(=O)O; Phe(3-Me) = Cc1cccc(C[C@H](N)C(=O)O)c1; dBta = N[C@H](Cc1csc2ccccc12)C(=O)O; Val(3-OH) = CC(C)(O)[C@H](N)C(=O)O; 4Pal = N[C@@H](Cc1ccncc1)C(=O)O; 3Thi = N[C@@H](Cc1ccsc1)C(=O)O; Cha = N[C@@H](CC1CCCCC1)C(=O)O; Ile(3ξ) = CCC(C)[C@H](N)C(=O)O; AllylGly = C=CC[C@H](N)C(=O)O; Thr(3ξ) = CC(O)[C@H](N)C(=O)O; NMeNle = CCCC[C@H](NC)C(=O)O; dOrn = NCCC[C@@H](N)C(=O)O; Carboxymethyl = O=C(O)C*; NMeA = CN[C@@H](C)C(=O)O; Orn = NCCC[C@H](N)C(=O)O; Dab = NCC[C@H](N)C(=O)O; ξC = NC(CS)C(=O)O

The IC50 is the point on the concentration scale where inhibition reaches its midpoint.

T1 sequence (Q15116 25-288): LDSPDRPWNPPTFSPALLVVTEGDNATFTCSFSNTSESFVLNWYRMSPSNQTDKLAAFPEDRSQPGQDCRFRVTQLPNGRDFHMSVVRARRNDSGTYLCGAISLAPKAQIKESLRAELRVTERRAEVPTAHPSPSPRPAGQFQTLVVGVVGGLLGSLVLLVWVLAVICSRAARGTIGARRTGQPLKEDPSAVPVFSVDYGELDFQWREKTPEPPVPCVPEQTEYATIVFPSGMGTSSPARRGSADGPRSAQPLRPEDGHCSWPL

With `Cc1cccc(C[C@@H]2NC(=O)[C@H](CC(=O)O)NC(=O)[C@H](Cc3ccc(OCC(=O)O)cc3)NC(=O)[C@H](CC(N)=O)NC(=O)CSC[C@@H](C(N)=O)NC(=O)[C@H](CC(N)=O)NC(=O)[C@H](C(C)C)NC(=O)[C@H](CC3CCCCC3)NC(=O)[C@H](CCN)NC(=O)[C@@H](CC(C)C)NC(=O)[C@H](C)N(C)C(=O)[C@H](Cc3ccc(OCC(=O)O)cc3)NC(=O)[C@H](Cc3ccc(-c4ccccc4)cc3)NC(=O)[C@H](Cc3ccc(OCC(=O)O)cc3)NC2=O)c1` [Compound 1664] ({CH2CO}-NY(Carboxymethyl)D[Phe(3-Me)]Y(Carboxymethyl)[Bip]Y(Carboxymethyl)[NMeA][dL][Dab][Cha]VNC-NH2; thioether N-14), the IC50 stood at 0.05 µM.

As for `CC(=O)NCC[C@H](NC(=O)[C@@H]1CSCC(=O)N[C@@H](C(C)O)C(=O)N[C@@H](Cc2ccc(OCC(=O)O)cc2)C(=O)N[C@@H](CC(=O)O)C(=O)N[C@@H](Cc2cccc(C)c2)C(=O)N[C@@H](Cc2ccc(C(=O)O)cc2)C(=O)N[C@@H](Cc2ccc(-c3ccccc3)cc2)C(=O)N[C@@H](Cc2ccc(OCC(=O)O)cc2)C(=O)N(C)[C@@H](C)C(=O)N[C@H](CC(C)C)C(=O)N[C@@H](CCN)C(=O)N[C@@H](CC2CCCCC2)C(=O)N[C@@H](C(C)(C)O)C(=O)N[C@@H](Cc2cnc[nH]2)C(=O)N1)C(N)=O` (stereo partly drawn) [Compound 2161] ({CH2CO}-[Thr(3ξ)]Y(Carboxymethyl)D[Phe(3-Me)][Phe(4-COOH)][Bip]Y(Carboxymethyl)[NMeA][dL][Dab][Cha][Val(3-OH)]HC[Dab](Ac)-NH2; thioether N-14), the IC50 was 0.04 µM.

On to `CC(C)C[C@@H]1NC(=O)[C@H](CCCNC(=N)N)NC(=O)[C@@H](CC(C)C)NC(=O)[C@H](C)N(C)C(=O)[C@H](CCCN)NC(=O)[C@H](Cc2ccc(-c3ccccc3)cc2)NC(=O)[C@H](C(C)C)NC(=O)[C@H](Cc2c[nH]c3ccccc23)NC(=O)[C@H](CC(=O)O)NC(=O)[C@H](Cc2ccc(O)cc2)NC(=O)[C@H](CC(N)=O)NC(=O)CSC[C@@H](C(=O)N[C@@H](C)C(N)=O)NC(=O)[C@H]([C@@H](C)O)NC(=O)[C@H](C(C)C)NC1=O` [Compound 1288] ({CH2CO}-NYDWV[Bip][Orn][NMeA][dL]RLVTCA-NH2; thioether N-14), for which the IC50 was 0.08 µM.

Turning to `Cc1cccc(C[C@@H]2NC(=O)[C@H](CC(=O)O)NC(=O)[C@H](Cc3ccc(OCC(=O)O)cc3)NC(=O)[C@H](Cc3ccsc3)NC(=O)CSC[C@@H](C(=O)N[C@@H](CCN)C(N)=O)NC(=O)[C@H](C(C)O)NC(=O)[C@H](C(C)C)NC(=O)[C@H](CC3CCCCC3)NC(=O)[C@H](CCN)NC(=O)[C@@H](CC(C)C)NC(=O)[C@H](C)N(C)C(=O)[C@H](Cc3ccc(OCC(=O)O)cc3)NC(=O)[C@H](Cc3ccc(-c4ccccc4)cc3)NC(=O)[C@H](Cc3ccc(C(=O)O)cc3)NC2=O)c1` (stereo partly drawn) [Compound 2128] ({CH2CO}-[3Thi]Y(Carboxymethyl)D[Phe(3-Me)][Phe(4-COOH)][Bip]Y(Carboxymethyl)[NMeA][dL][Dab][Cha]V[Thr(3ξ)]C[Dab]-NH2; thioether N-14), the IC50 is 0.01 µM.

For the molecule `C=CC[C@@H]1NC(=O)[C@H](CC(C)C)NC(=O)[C@H](CC(N)=O)NC(=O)[C@@H](CC(C)C)NC(=O)[C@H](C)N(C)C(=O)[C@H](CC=C)NC(=O)[C@H](Cc2ccc(-c3ccccc3)cc2)NC(=O)[C@H](CC(C)C)NC(=O)[C@H](Cc2cccc(C)c2)NC(=O)[C@H](CC(=O)O)NC(=O)[C@H](Cc2ccncc2)NC(=O)[C@H](Cc2ccc(OCC(=O)O)cc2)NC(=O)CSCC(C(=O)NCC(N)=O)NC(=O)[C@H](CO)NC1=O` (stereo partly drawn) [Compound 1881] ({CH2CO}-Y(Carboxymethyl)[4Pal]D[Phe(3-Me)]L[Bip][AllylGly][NMeA][dL]NL[AllylGly]S[ξC]G-NH2; thioether N-14), the IC50 is 0.1 µM.

Consider `Cc1cccc(C[C@@H]2NC(=O)[C@H](CC(=O)O)NC(=O)[C@H](Cc3ccc(OCC(=O)O)cc3)NC(=O)[C@H]([C@@H](C)O)NC(=O)CSC[C@@H](C(N)=O)NC(=O)[C@H](CC(=O)O)NC(=O)[C@H](C(C)C)NC(=O)[C@H](CC3CCCCC3)NC(=O)[C@H](CCN)NC(=O)[C@@H](CC(C)C)NC(=O)[C@H](C)N(C)C(=O)[C@H](Cc3ccc(OCC(=O)O)cc3)NC(=O)[C@H](Cc3ccc(-c4ccccc4)cc3)NC(=O)[C@H](Cc3ccc(OCC(=O)O)cc3)NC2=O)c1` [Compound 1670] ({CH2CO}-TY(Carboxymethyl)D[Phe(3-Me)]Y(Carboxymethyl)[Bip]Y(Carboxymethyl)[NMeA][dL][Dab][Cha]VDC-NH2; thioether N-14), for which the IC50 is 0.08 µM.

In the case of `CC(C)C[C@@H]1NC(=O)[C@H](CCCCN)NC(=O)[C@@H](CC(C)C)NC(=O)[C@H](C)N(C)C(=O)[C@H](CCCNC(=N)N)NC(=O)[C@H](Cc2ccc(-c3ccccc3)cc2)NC(=O)[C@H](C(C)C)NC(=O)[C@H](Cc2c[nH]c3ccccc23)NC(=O)[C@H](CC(=O)O)NC(=O)[C@H](Cc2ccc(O)cc2)NC(=O)[C@H](CC(N)=O)NC(=O)CSC[C@@H](C(=O)N[C@@H](CO)C(N)=O)NC(=O)[C@H]([C@@H](C)O)NC(=O)[C@H](C(C)C)NC1=O` [Compound 1174] ({CH2CO}-NYDWV[Bip]R[NMeA][dL]KLVTCS-NH2; thioether N-14), the IC50 was determined as 0.06 µM.

On to `CCC(C)[C@@H]1NC(=O)[C@H](Cc2ccc(-c3ccccc3)cc2)NC(=O)[C@H](C(C)C)NC(=O)[C@H](Cc2c[nH]c3ccccc23)NC(=O)[C@H](CC(=O)O)NC(=O)[C@H](Cc2ccc(O)cc2)NC(=O)[C@H](Cc2cc3ccccc3cn2)NC(=O)CSC[C@@H](C(=O)N[C@@H](C)C(N)=O)NC(=O)[C@H](C(C)O)NC(=O)[C@H](C(C)C)NC(=O)[C@H](CC2CCCCC2)NC(=O)[C@H](CCN)NC(=O)[C@@H](CC(C)C)NC(=O)[C@H](C)N(C)C1=O` (stereo partly drawn) [Compound 2044] ({CH2CO}-[X23]YDWV[Bip][Ile(3ξ)][NMeA][dL][Dab][Cha]V[Thr(3ξ)]CA-NH2; thioether N-14), for which the IC50 came out at 0.02 µM.

With `CC(C)C[C@@H]1NC(=O)[C@H](CCN)NC(=O)[C@@H](CC(C)C)NC(=O)[C@H](C)N(C)C(=O)[C@H](CCC(=O)O)NC(=O)[C@H](Cc2ccc(-c3ccccc3)cc2)NC(=O)[C@H](C(C)C)NC(=O)[C@H](Cc2c[nH]c3ccccc23)NC(=O)[C@H](CC(=O)O)NC(=O)[C@H](Cc2ccc(C(=O)O)cc2)NC(=O)[C@H](CC(N)=O)NC(=O)CSC[C@@H](C(=O)N[C@@H](C)C(N)=O)NC(=O)[C@H]([C@@H](C)O)NC(=O)[C@H](C(C)C)NC1=O` [Compound 1389] ({CH2CO}-N[Phe(4-COOH)]DWV[Bip]E[NMeA][dL][Dab]LVTCA-NH2; thioether N-14), the IC50 was determined as 0.03 µM.

As for `CC(C)C[C@@H]1NC(=O)[C@H](CCCNC(=N)N)NC(=O)[C@@H](Cc2csc3ccccc23)NC(=O)[C@H](C)N(C)C(=O)[C@H](CCCNC(=N)N)NC(=O)[C@H](Cc2ccc(-c3ccccc3)cc2)NC(=O)[C@H](C(C)C)NC(=O)[C@H](Cc2c[nH]c3ccccc23)NC(=O)[C@H](CC(=O)O)NC(=O)[C@H](Cc2ccc(O)cc2)NC(=O)[C@H](CC(N)=O)NC(=O)CSC[C@@H](C(=O)N[C@@H](C)C(N)=O)NC(=O)[C@H]([C@@H](C)O)NC(=O)[C@H](C(C)C)NC1=O` [Compound 1181] ({CH2CO}-NYDWV[Bip]R[NMeA][dBta]RLVTCA-NH2; thioether N-14), the IC50 turned out to be 0.34 µM.

For `CCCC[C@H]1C(=O)N[C@H](C)C(=O)N[C@@H](CCN)C(=O)N[C@@H](CC2CCCCC2)C(=O)N[C@@H](C(C)C)C(=O)N[C@@H](CO)C(=O)N[C@H](C(=O)N[C@@H](CC(N)=O)C(N)=O)CSCC(=O)N[C@@H](Cc2ccncc2)C(=O)N[C@@H](Cc2ccc(C(=O)O)cc2)C(=O)N[C@@H](CC(=O)O)C(=O)N[C@@H](Cc2c[nH]c3ccccc23)C(=O)N[C@@H](C(C)C)C(=O)N[C@@H](Cc2ccc(-c3ccccc3)cc2)C(=O)N[C@@H](CCCN)C(=O)N1C` [Compound 2090] ({CH2CO}-[4Pal][Phe(4-COOH)]DWV[Bip][Orn][NMeNle][dA][Dab][Cha]VSCN-NH2; thioether N-14), the IC50 turned out to be 0.14 µM.

As to `CC(C)C[C@@H]1NC(=O)[C@H](Cc2c[nH]c3ccccc23)NC(=O)[C@H](CC(=O)O)NC(=O)[C@H](Cc2ccc(O)cc2)NC(=O)[C@H](Cc2ccccc2)NC(=O)CSC[C@@H](C(=O)N[C@@H](C)C(N)=O)NC(=O)[C@H](CO)NC(=O)[C@H](C(C)C)NC(=O)[C@H](CC(C)C)NC(=O)[C@H](CC(N)=O)NC(=O)[C@@H](CCCN)NC(=O)[C@H](C)N(C)C(=O)[C@H](C(C)C)NC(=O)[C@H](Cc2ccc(-c3ccccc3)cc2)NC1=O` [Compound 1802] ({CH2CO}-FYDWL[Bip]V[NMeA][dOrn]NLVSCA-NH2; thioether N-14), the IC50 was determined as 0.19 µM.

Consider `CC(C)C[C@@H]1NC(=O)[C@H](CCN)NC(=O)[C@@H](CC(C)C)NC(=O)[C@H](C)N(C)C(=O)[C@H](CCCN)NC(=O)[C@H](Cc2ccc(-c3ccccc3)cc2)NC(=O)[C@H](C(C)C)NC(=O)[C@H](Cc2c[nH]c3ccccc23)NC(=O)[C@H](CC(=O)O)NC(=O)[C@H](Cc2ccc(O)cc2)NC(=O)[C@H](Cc2ccncc2)NC(=O)CSC[C@@H](C(=O)N[C@@H](C)C(N)=O)NC(=O)[C@H](C(C)O)NC(=O)[C@H](C(C)C)NC1=O` (stereo partly drawn) [Compound 2081] ({CH2CO}-[4Pal]YDWV[Bip][Orn][NMeA][dL][Dab]LV[Thr(3ξ)]CA-NH2; thioether N-14), for which the IC50 turned out to be 0.03 µM.

With `Cc1cccc(C[C@@H]2NC(=O)[C@H](CC(=O)O)NC(=O)[C@H](Cc3ccc(OCC(=O)O)cc3)NC(=O)[C@H]([C@@H](C)O)NC(=O)CSC[C@@H](C(N)=O)NC(=O)[C@H](CCCN)NC(=O)[C@H](C(C)C)NC(=O)[C@H](CC3CCCCC3)NC(=O)[C@H](CC(N)=O)NC(=O)[C@@H](CC(C)C)NC(=O)[C@H](C)N(C)C(=O)[C@H](Cc3ccc(OCC(=O)O)cc3)NC(=O)[C@H](Cc3ccc(-c4ccccc4)cc3)NC(=O)[C@H](Cc3ccc(OCC(=O)O)cc3)NC2=O)c1` [Compound 1680] ({CH2CO}-TY(Carboxymethyl)D[Phe(3-Me)]Y(Carboxymethyl)[Bip]Y(Carboxymethyl)[NMeA][dL]N[Cha]V[Orn]C-NH2; thioether N-14), the IC50 was 0.17 µM.

The values are drawn from patent US20240409585A1, “MACROCYCLIC IMMUNOMODULATORS” (priority 2021, published 2024).
